Take `COCC(O)Cc1ccc(-c2ccc3cc(C(=O)O)ccc3c2)cc1C12CC3CC(CC(C3)C1)C2` (stereo unspecified): the melting point (as a rule, the temperature of the solid-liquid transition) lay in the range of 240 to 242 °C. Then `N#Cc1cc(Cl)cc(CO)c1`, with 110 to 111 °C. The value for `COC(=O)c1cc([N+](=O)[O-])nn1C` was 65 to 66 °C.

The compound `Cc1cc(C)cc(NCc2ccc3nc(NCC(O)CO)n(Cc4nc(C)ccc4O)c3c2)c1` (stereo unspecified) returned a melting point of 128 °C.

The compound `Fc1ccc(Oc2ccc(-c3nc4ccccc4[nH]3)cc2)cc1` returned a melting point of 243 to 245 °C. The value for `N#Cc1c(-c2ccc(Cl)c(Cl)c2)[nH]c(C(F)(F)F)c1Cl` was 239 to 241 °C; that for `O=Cc1cc(=O)c(OCc2ccccc2)c(C(=O)c2ccc(Cc3ccc(F)cc3)o2)o1` was 69 to 72 °C; that for `ClC(=NNc1c(Cl)cc(Cl)cc1Cl)c1ccccc1` was 93 to 94.5 °C. Then `O=C(Nc1cc(-c2ccnc3c(C(=O)c4cccs4)cnn23)ccc1F)c1ccncc1`, with 175 to 179 °C; and `Cc1cc(CCCCCOc2ccc(C3=NCCO3)cc2CO)on1`, with 140 to 141 °C; and `Cc1cc(CCCCCOc2ccc(C3=NCCO3)cc2)on1`, with 102 to 104 °C.

`Nc1ccc(OCCCCCOc2ccc(N)cc2)cc1` registered a melting point of 78 to 79 °C.

Regarding `CC(C)n1nc(-c2sc(C(=O)N(C)C)nc2-c2ccccc2)ccc1=O`, the melting point is 141 to 144 °C. The value for `Clc1ccc(-c2nnco2)cc1` was 129 °C; that for `CC(C)OC(=O)C1=C(COCCN2C(=O)c3ccccc3C2=O)Nc2c(C#N)cnn2C1c1cccc(F)c1F` (stereo unspecified) was 176 to 177 °C; that for `Cc1c(N2CCC(C(N)c3ccccn3)C2)c(F)c(N)c2c(=O)c(C(=O)O)cn(C3CC3F)c12` (stereo unspecified) was 127 to 129 °C.

In turn, `COC(=O)c1ccccc1NC(=S)c1ccc(OC)nc1` yielded a melting point of 133 to 140 °C.

Take `CC(C)CC(=O)Nc1cccc(-c2ccnc3c(Br)cnn23)c1`: the melting point was 132 to 134 °C. Then `COCC(=O)NCCC1CCCc2ccc(OC)cc21` (single isomer, unassigned; (-)), with 58 to 60 °C; and `NC1=C2C=NN=C2N(c2ccc([N+](=O)[O-])cc2)CN1c1ccccc1`, with 348 to 349 °C. The value for `N#CCCCCCC#Cc1nc(N)c2ncn(C3OC(CO)C(O)C3O)c2n1` (stereo unspecified) was 99 to 101 °C; that for `O=C(O)CCc1oc(SCc2ccccn2)nc1-c1ccc(Cl)cc1` was 125 to 126 °C; that for `O=C1C(=O)c2ccccc2C2=C1SCC1(CCN(CC(O)COCc3ccco3)CC1)O2` (stereo unspecified) was 143 to 145 °C. As for `CN1CCC(Oc2ccc3ccc(N)nc3n2)CC1`, the melting point is 174 °C. `O=c1c(OC(F)F)cn(-c2cccc(C(F)(F)F)c2)nc1-c1ccnn1-c1ccccc1` registered a melting point of 132 to 134 °C. The value for `Cn1c(C(=O)O)cc(=O)c2oc3ccccc3c(=O)c21` was 220 °C; that for `COc1cc(OC)c(N2CCCC2)cc1/C=C/C(=O)c1ccc(S(=O)(=O)Nc2ccccn2)cc1` was 124 to 128 °C; that for `CN(c1cccc2cc(-c3ncc(CCC(=O)NS(C)(=O)=O)s3)[nH]c12)S(=O)(=O)c1cccs1` was 217 to 218 °C. In turn, `COc1cc(-c2oc3ccccc3c(=O)c2C(=O)N2CCN(c3ccccn3)CC2)cc(OC)c1OC` came in with a melting point of 90 to 95 °C. Then `N#CCCNC(=O)c1cccc(-c2cccn3c(=O)n(Cc4cccc(C(F)(F)F)c4)nc23)c1`, with 217 to 219 °C; and `Nc1cc(OC(=O)Oc2cc(N)c(F)cc2Cl)c(Cl)cc1F`, with 136 to 137 °C. The value for `CCc1cn2c(=O)c(C#N)cnc2c2ccccc12` was 208 to 211 °C.

On to `CS(=O)(=O)C1Cc2cc(Cl)ccc2C1=O` (stereo unspecified), for which the melting point turned out to be 197 °C. Turning to `COC(=O)N1CC[C@@H]2[C@H]1CCC[C@@]2(O)C#Cc1cccc(C)c1`, the melting point was in the range of 110 to 112 °C.

For the compound `COc1ccc(CCC(N)CC(=O)O)cc1` (stereo unspecified), the melting point was in the range of 180 to 184 °C.

As to `COC(=O)C1=C(C)NC(=S)N(S(C)(=O)=O)C1c1cccc([N+](=O)[O-])c1` (stereo unspecified), the melting point lay in the range of 188 to 190 °C. The value for `CC1(C)CCNC(=O)C(Cl)(Cl)C1` was 108 to 110 °C; that for `CCCSC1=NSc2cc(C)cnc2N1Cc1ccc(-c2ccccc2C(=O)O)cc1` was 237 to 239 °C; that for `O=C1CC2(CCCC2)C(O)C(=O)N1CCCCN1CCN(c2nsc3ccccc23)CC1` (stereo unspecified) was 151 °C. Then `Cc1nc2c(O)cccc2c(Cl)c1C`, with 120 °C.

`CCCCCCC(C(=O)O)n1cc(Cc2ccccc2)c2cc(-c3ccccc3-c3nn[nH]n3)ccc21` (stereo unspecified) came in with a melting point of 108 to 112 °C. Then `CCN1CC(=O)N(c2ccc3ccccc3c2)C1=S`, with 156 to 159 °C; and `COc1cc2nccc(CC(=O)O)c2cc1OC`, with more than 250 °C; and `Cn1c2ccc(Cl)cc2c2c(CC(=O)N3CCCC3)nn(-c3ccccc3)c(=O)c21`, with 261 to 262 °C. The value for `COC(=O)CCc1cc2c(s1)-n1c(C)nnc1C(C)N=C2c1ccccc1Cl` (stereo unspecified) was 131 to 132 °C. The value for `Cn1cnnc1C(O)(c1ccc(Cl)cc1)c1cc2c3c(c1)c(-c1cccc(Cl)c1)cc(=O)n3CCC2` (stereo unspecified) was 183 °C; that for `CCCCNS(=O)(=O)CC(O)C(O)C(CC1CCCCC1)NC(=O)C(CC)Cc1c[nH]cn1` (stereo unspecified) was 60 to 90 °C; that for `N#CC(=C1CCN(Cc2ccccc2)CC1)c1ccc(F)cc1` was 81 to 83 °C. `COc1ccc(CCS(=O)(=O)CC2CCC2)cc1`: the melting point was determined as 52 °C. With `CC(=O)C(C)Oc1cc(-n2c(=O)cc(C(F)(F)F)n(C)c2=O)c(F)cc1Br` (stereo unspecified), the melting point came out at 119 °C. Then `CC(=O)Oc1ccc(C(=O)O)cc1Cl`, with 152 to 159 °C; and `COc1cc(C(C)C)c2c(c1)S(=O)(=O)N(COc1cc(C(F)(F)F)nn1-c1ccc3ccccc3n1)C2=O`, with 124 to 125 °C. Take `O=C(O)C1C=C(c2ccccc2)CC1` (stereo unspecified): the melting point lay within 122 to 124 °C. The value for `CC(C)C[C@H](NC(=O)CCS(=O)(=O)c1ccccc1)C(=O)N[C@@H](C(C)C)[C@@H](O)c1c(-c2ccccc2)c1=O` was 100 to 106 °C; that for `COc1ccc(C2Sc3cc(Oc4cccc(C)c4)ccc3NC(=O)C2O)cc1` (stereo unspecified) was 201 to 202 °C. The value for `O=C(NCc1ccccn1)c1ccnc(N2CCN(CC3CC3)C2=O)c1` was 122 to 123 °C.

For the compound `Cn1c2cc(Cl)ccc2c2oc(C(=O)Cl)cc21`, the melting point is 154 to 156 °C. As for `O=C1CC(C(=O)OCc2ccccc2)C(=O)C(Cc2ccccc2)N1` (stereo unspecified), the melting point was 119 to 120 °C. The value for `O=c1[nH]c2cc(Br)ccc2c(O)c1-c1ccccc1` was 343 to 345 °C; that for `CC(=O)SC1NC(=O)C1Cc1ccccc1` (stereo unspecified) was 42 to 43 °C; that for `CCCOc1ccc2c(c1)C(=O)C[C@H]2c1ccc2c(c1)OCO2` was 63 to 65 °C.

For `CC(C)(C)OC(=O)n1cccc1-c1ccc2c(c1)C1(CCCCC1)C(=O)N2`, the melting point was 177 °C.

`CSc1cnc(OCCOc2ncnc(NS(=O)(=O)c3ccc(C(C)(C)C)cc3)c2-c2ccc(C(=O)O)cc2)nc1` returned a melting point of 226 to 227 °C.

In turn, `CNC(=O)c1ccc(C(=O)Nc2cccc(C3=NC(C)(C)Cc4cc(OC)c5c(c43)CC(C)(C)O5)c2)cc1` had a melting point of 310 to 312 °C.

As to `COc1ccc2c(c1)N(CCNC(C)=O)C(c1ccccc1)CO2` (stereo unspecified), the melting point lay in the range of 125 to 126 °C. Then `CCOc1cc(C)ccc1C1CCN(CCCCNC(=O)c2ccc3c(c2)cc(-c2ccc(Cl)cc2)n3C)CC1`, with 174 to 175 °C.

`COc1cc2c(cc1OC)N(C(=O)c1ccc(-c3ccccc3OC)c(C)c1)Cc1ccc(C(=O)N(C)CC(O)C(O)C(O)C(O)CO)n1C2` (stereo unspecified) came in with a melting point of 110 to 120 °C.

For the compound `CCc1cc2[nH]c(=O)c(=O)[nH]c2cc1Cl`, the melting point was more than 315 °C. Consider `CC(=O)C1CCC2C3CCC4CC(OC(=O)CI)CCC4(C)C3C(OC(=O)CI)CC12C` (stereo unspecified), for which the melting point was 112 to 113 °C. The value for `Cc1cc(-c2nc3cccnn3c2-c2ccnc(NC(=O)c3ccc4ncsc4c3)c2)ccc1F` was 252 to 253 °C.

In the case of `Cc1nc(NC(=O)Nc2ccc(Cl)cc2)sc1C(=O)NCc1ccccc1`, the melting point was more than 300 °C. The value for `CN(C)CCCn1nc2c(c1-c1ccccc1)CCc1ccccc1-2` was 60 to 62 °C; that for `Cn1cnc(S(=O)(=O)N2CCSCC2)c1` was 154 to 155 °C. Then `Cc1cccc(C(=NO)c2ccc(OCCOc3ccc(C(=NO)c4cccc(C)c4)cc3)cc2)c1`, with 151 to 153 °C; and `NNC(=O)c1cc2c(s1)-c1ccccc1OC2c1ccccc1` (stereo unspecified), with 238 to 239 °C. The value for `CC(C)(C)OC(=O)NC1CCN(CC(=O)O)C1=O` (stereo unspecified) was 62 to 64 °C; that for `CC(C)(C)OC(=O)Nc1cc(OCc2ccccc2)c2ccccc2c1I` was 111 to 112 °C. Turning to `COc1ccc2c(Nc3ccc(Cl)cc3F)c(C#N)cnc2c1`, the melting point was 208 to 210 °C. The value for `Nc1c([N+](=O)[O-])cc(Br)c2c1CN(CCc1ccccc1)CC2` was 120 to 122 °C; that for `CSC1=Nc2ccccc2C(=O)N(C)C1c1ccccc1` (stereo unspecified) was 130 to 132 °C; that for `O=CC1=CCC(C=CC(=O)O)C=C1` (stereo unspecified) was 134 to 138 °C. As to `CCN(c1cccc2cc(-c3ncc(COc4ccc(C(=O)O)cc4)s3)[nH]c12)S(=O)(=O)c1cccs1`, the melting point came to 188 °C. Then `CCC(CC)Oc1cc(C)nc(Oc2c(C)cc(C)cc2C)c1[N+](=O)[O-]`, with 106 to 109 °C; and `FC(F)(F)C(/C=C/c1ccc(-n2cncn2)cc1)c1cc(Cl)cc(Cl)c1` (stereo unspecified), with 93 to 97 °C; and `CC(C)(O)C#Cc1cccc(Nc2nccc(-c3sc(N)nc3-c3ccccc3)n2)c1`, with 262 to 263 °C.

With `CCOc1nn(CCOc2ccccc2CC(=O)O)cc1C(=O)NCc1ccc(Cl)cc1Cl`, the melting point fell in the range of 167 to 169 °C.

Source of the values: a melting point compilation (Tetko et al.; mined from patent text by program, amines drawn as free bases though some values may be those of a salt).
